Source: patent US9493446B2, “Orexin receptor antagonists which are [ortho bi-(hetero-)aryl]-[2-(meta bi-(hetero-)aryl)-pyrrolidin-1-yl]-methanone derivatives” (Actelion Pharmaceuticals Ltd, priority 2012, dated 2016)
Read-outs that look alike come from different tables or passages of the source.

Legend:
orexin-1 = orexin-1 (Homo sapiens (Human), UniProt O43613); test: Intracellular calcium measurement (FLIPR), CHO cells expressing human orexin-1 receptor, 3 nM orexin-A; assay type: cell-based; settings: read-out: IC50 OX1
Sequence of orexin-1 (O43613 whole entry): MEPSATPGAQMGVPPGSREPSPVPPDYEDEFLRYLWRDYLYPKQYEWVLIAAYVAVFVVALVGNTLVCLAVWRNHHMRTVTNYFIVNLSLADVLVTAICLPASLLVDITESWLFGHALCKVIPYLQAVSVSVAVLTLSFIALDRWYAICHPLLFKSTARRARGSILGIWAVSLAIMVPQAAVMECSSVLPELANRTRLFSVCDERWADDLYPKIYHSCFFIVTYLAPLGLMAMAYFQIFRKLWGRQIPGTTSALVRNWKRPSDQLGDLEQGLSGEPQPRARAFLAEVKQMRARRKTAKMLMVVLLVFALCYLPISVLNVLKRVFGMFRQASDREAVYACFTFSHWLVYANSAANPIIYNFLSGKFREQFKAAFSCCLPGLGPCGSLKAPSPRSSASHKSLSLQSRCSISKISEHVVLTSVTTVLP
Outline: (§1)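 Antagonist is added 120 min before agonist. Fluo-4 AM-loaded CHO cells carry human orexin-1 or orexin-2 receptor, and calcium is read by FLIPR.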

human orexin-2 receptor = human orexin-2 receptor (Homo sapiens (Human), UniProt O43614); test: Intracellular calcium measurement (FLIPR), CHO cells expressing human orexin-2 receptor, 3 nM orexin-A; assay type: cell-based; settings: read-out: IC50 OX2
Sequence of human orexin-2 receptor (O43614 whole entry): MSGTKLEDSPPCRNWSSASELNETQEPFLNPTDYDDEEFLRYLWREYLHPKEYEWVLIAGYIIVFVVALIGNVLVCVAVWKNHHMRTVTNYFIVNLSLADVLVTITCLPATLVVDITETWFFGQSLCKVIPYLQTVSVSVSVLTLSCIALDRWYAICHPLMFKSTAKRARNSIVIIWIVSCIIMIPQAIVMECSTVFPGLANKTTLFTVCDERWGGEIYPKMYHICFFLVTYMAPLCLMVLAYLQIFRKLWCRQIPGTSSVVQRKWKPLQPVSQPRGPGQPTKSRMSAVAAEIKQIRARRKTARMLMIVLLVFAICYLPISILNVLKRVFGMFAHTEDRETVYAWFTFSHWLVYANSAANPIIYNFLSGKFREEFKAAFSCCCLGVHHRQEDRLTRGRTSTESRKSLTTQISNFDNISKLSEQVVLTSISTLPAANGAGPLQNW
Outline: as §1

[1] = CHO cells expressing human orexin-1 receptor, FLIPR, 3 nM orexin-A, geometric mean if determined several times
[2] = CHO cells expressing human orexin-2 receptor, FLIPR, 3 nM orexin-A, geometric mean if determined several times

Row | Compound | IC50 (orexin-1; [1]) [nM] | IC50 (human orexin-2 receptor; [2]) [nM] | IC50 (orexin-1) [nM] | IC50 (human orexin-2 receptor) [nM]
1 | Cc1ccc(-n2nccn2)c(C(=O)N2CCC[C@H]2c2cc(-c3cccc(Cl)c3C)on2)c1 [compound 431] | 19 | 2 | – | –
2 | COc1cc(C(=O)N2CCC[C@H]2c2cc(-c3ccccc3)on2)c(-n2nccn2)cc1C [compound 432, (5-Methoxy-4-methyl-2-[1,2,3]triazol-2-yl-phenyl)-[(S)-2-(5-phenyl-isoxazol-3-yl)-pyrrolidin-1-yl]-methanone] | 322 | 16 | – | –
3 | COc1cc(C(=O)N2CCC[C@H]2c2cc(-c3cccc(Cl)c3C)on2)c(-n2nccn2)cc1C [compound 433] | 19 | 1 | – | –
4 | Cc1ccc(-n2nccn2)c(C(=O)N2CCC[C@H]2c2cc(-c3ccccc3OC(F)(F)F)on2)c1 [compound 434, (5-Methyl-2-[1,2,3]triazol-2-yl-phenyl)-{(S)-2-[5-(2-trifluoromethoxy-phenyl)-isoxazol-3-yl]-pyrrolidin-1-yl}-methanone] | 21 | 5 | – | –
5 | Cc1ccc(C(=O)N2CCC[C@H]2c2cc(-c3ccccc3OC(F)(F)F)on2)c(-n2nccn2)c1 [compound 435, (4-Methyl-2-[1,2,3]triazol-2-yl-phenyl)-{(S)-2-[5-(2-trifluoromethoxy-phenyl)-isoxazol-3-yl]-pyrrolidin-1-yl}-methanone] | 35 | 31 | – | –
6 | COc1cc(C(=O)N2CCC[C@H]2c2cc(-c3ccccc3OC(F)(F)F)on2)c(-n2nccn2)cc1C [compound 436, (5-Methoxy-4-methyl-2-[1,2,3]triazol-2-yl-phenyl)-{(S)-2-[5-(2-trifluoromethoxy-phenyl)-isoxazol-3-yl]-pyrrolidin-1-yl}-methanone] | 49 | 13 | – | –
7 | COc1cc(C(=O)N2CCC[C@H]2c2cc(-c3ccccc3OC(F)(F)F)on2)c(-n2nccn2)cc1Cl [compound 437] | – | 15 | 62 | –
8 | Cc1ccc(-n2nccn2)c(C(=O)N2CCC[C@H]2c2nnc(-c3ccccc3)o2)c1 [compound 439, (5-Methyl-2-[1,2,3]triazol-2-yl-phenyl)-[(S)-2-(5-phenyl-[1,3,4]oxadiazol-2-yl)-pyrrolidin-1-yl]-methanone] | 1800 | 1410 | – | –
9 | Cc1ccc(-n2nccn2)c(C(=O)N2CCC[C@H]2c2nnc(-c3cccc(Cl)c3C)o2)c1 [compound 440] | 141 | 21 | – | –
10 | Cc1ccc(-n2nccn2)c(C(=O)N2CCC[C@H]2c2nnc(-c3ccccc3C)o2)c1 [compound 441, (5-Methyl-2-[1,2,3]triazol-2-yl-phenyl)-[(S)-2-(5-o-tolyl-[1,3,4]oxadiazol-2-yl)-pyrrolidin-1-yl]-methanone] | 946 | 105 | – | –
11 | Cc1ccc(-n2nccn2)c(C(=O)N2CCC[C@H]2c2nnc(-c3ccccc3OC(F)(F)F)o2)c1 [compound 442, (5-Methyl-2-[1,2,3]triazol-2-yl-phenyl)-{(S)-2-[5-(2-trifluoromethoxy-phenyl)-[1,3,4]oxadiazol-2-yl]-pyrrolidin-1-yl}-methanone] | 184 | 118 | – | –
12 | Cc1nc(C(=O)N2CCC[C@H]2c2nnc(-c3ccccc3OC(F)(F)F)o2)c(-c2cccc(F)c2)s1 [compound 443, [5-(3-Fluoro-phenyl)-2-methyl-thiazol-4-yl]-{(S)-2-[5-(2-trifluoromethoxy-phenyl)-[1,3,4]oxadiazol-2-yl]-pyrrolidin-1-yl}-methanone] | 68 | 45 | – | –
13 | Cc1nc(C(=O)N2CCC[C@H]2c2nnc(-c3ccccc3OC(F)(F)F)o2)c(-c2ccccc2F)s1 [compound 444, [5-(2-Fluoro-phenyl)-2-methyl-thiazol-4-yl]-{(S)-2-[5-(2-trifluoromethoxy-phenyl)-[1,3,4]oxadiazol-2-yl]-pyrrolidin-1-yl}-methanone] | 83 | 60 | – | –
14 | COc1cc(C(=O)N2CCC[C@H]2c2nnc(-c3cccc(Cl)c3C)o2)c(-n2nccn2)cc1C [compound 445] | 157 | – | – | 9
15 | COc1cc(C(=O)N2CCC[C@H]2c2nnc(-c3cccc(Cl)c3C)o2)c(-n2nccn2)cc1Cl [compound 446] | 82 | 6 | – | –
16 | Cc1cc(C(=O)N2CCC[C@H]2c2nnc(-c3cccc(Cl)c3C)o2)c(-n2nccn2)cc1C [compound 447] | 30 | 5 | – | –
17 | Cc1ccc(-n2nccn2)c(C(=O)N2CCC[C@H]2c2nnc(-c3ccccc3OC(F)(F)F)[nH]2)c1 [compound 465, (5-Methyl-2-[1,2,3]triazol-2-yl-phenyl)-{(S)-2-[5-(2-trifluoromethoxy-phenyl)-4H-[1,2,4]triazol-3-yl]-pyrrolidin-1-yl}-methanone] | 76 | 10 | – | –
18 | COc1ccccc1-c1nnc([C@@H]2CCCN2C(=O)c2cc(C)c(C)cc2-n2nccn2)[nH]1 [compound 466, (4,5-Dimethyl-2-[1,2,3]triazol-2-yl-phenyl)-{(S)-2-[5-(2-methoxy-phenyl)-4H-[1,2,4]triazol-3-yl]-pyrrolidin-1-yl}-methanone] | 26 | 69 | – | –

Row | Compound | IC50 (orexin-1; [1]) [nM] | IC50 (human orexin-2 receptor; [2]) [nM] | IC50 (orexin-1) [nM] | IC50 (human orexin-2 receptor) [nM]
19 | COc1cc(C(=O)N2CCC[C@H]2c2nnc(-c3ccccc3OC)[nH]2)c(-n2nccn2)cc1Cl [compound 467] | 63 | 10 | – | –
20 | COc1cc(C(=O)N2CCC[C@H]2c2nnc(-c3ccccc3OC)[nH]2)c(-n2nccn2)cc1C [compound 468, (5-Methoxy-4-methyl-2-[1,2,3]triazol-2-yl-phenyl)-{(S)-2-[5-(2-methoxy-phenyl)-4H-[1,2,4]triazol-3-yl]-pyrrolidin-1-yl}-methanone] | 84 | 35 | – | –
21 | COc1ccccc1-c1nnc([C@@H]2CCCN2C(=O)c2cc(Cl)c(C)cc2-n2nccn2)[nH]1 [compound 469] | 25 | – | – | 45
22 | COc1ccccc1-c1nnc([C@@H]2CCCN2C(=O)c2ccc(Cl)cc2-n2nccn2)[nH]1 [compound 470] | 57 | – | – | 31
23 | COc1ccccc1-c1nnc([C@@H]2CCCN2C(=O)c2ccc(C)cc2-n2nccn2)[nH]1 [compound 471, {(S)-2-[5-(2-Methoxy-phenyl)-4H-[1,2,4]triazol-3-yl]-pyrrolidin-1-yl}-(4-methyl-2-[1,2,3]triazol-2-yl-phenyl)-methanone] | 49 | 127 | – | –
24 | COc1cc(C(=O)N2CCC[C@H]2c2nnc(-c3cccc(F)c3OC)[nH]2)c(-n2nccn2)cc1Cl [compound 472] | 19 | 2 | – | –
25 | COc1cc(C(=O)N2CCC[C@H]2c2nnc(-c3cccc(F)c3OC)[nH]2)c(-n2nccn2)cc1C [compound 473, {(S)-2-[5-(3-Fluoro-2-methoxy-phenyl)-4H-[1,2,4]triazol-3-yl]-pyrrolidin-1-yl}-(5-methoxy-4-methyl-2-[1,2,3]triazol-2-yl-phenyl)-methanone] | 57 | 6 | – | –
26 | COc1c(F)cccc1-c1nnc([C@@H]2CCCN2C(=O)c2cc(C)c(C)cc2-n2nccn2)[nH]1 [compound 474, (4,5-Dimethyl-2-[1,2,3]triazol-2-yl-phenyl)-{(S)-2-[5-(3-fluoro-2-methoxy-phenyl)-4H-[1,2,4]triazol-3-yl]-pyrrolidin-1-yl}-methanone] | 16 | 8 | – | –
27 | COc1c(F)cccc1-c1nnc([C@@H]2CCCN2C(=O)c2cc(Cl)c(C)cc2-n2nccn2)[nH]1 [compound 475] | – | 2 | 11 | –
28 | COc1c(F)cccc1-c1nnc([C@@H]2CCCN2C(=O)c2ccc(Cl)cc2-n2nccn2)[nH]1 [compound 476] | 27 | 3 | – | –
29 | COc1c(F)cccc1-c1nnc([C@@H]2CCCN2C(=O)c2ccc(C)cc2-n2nccn2)[nH]1 [compound 477, {(S)-2-[5-(3-Fluoro-2-methoxy-phenyl)-4H-[1,2,4]triazol-3-yl]-pyrrolidin-1-yl}-(4-methyl-2-[1,2,3]triazol-2-yl-phenyl)-methanone] | 55 | 15 | – | –
30 | CCOc1ncccc1-c1nnc([C@@H]2CCCN2C(=O)c2cc(OC)c(Cl)cc2-n2nccn2)[nH]1 [compound 478] | 27 | 11 | – | –
31 | CCOc1ncccc1-c1nnc([C@@H]2CCCN2C(=O)c2cc(OC)c(C)cc2-n2nccn2)[nH]1 [compound 479, {(S)-2-[5-(2-Ethoxy-pyridin-3-yl)-4H-[1,2,4]triazol-3-yl]-pyrrolidin-1-yl}-(5-methoxy-4-methyl-2-[1,2,3]triazol-2-yl-phenyl)-methanone] | 21 | 17 | – | –
32 | CCOc1ncccc1-c1nnc([C@@H]2CCCN2C(=O)c2cc(C)c(C)cc2-n2nccn2)[nH]1 [compound 480, (4,5-Dimethyl-2-[1,2,3]triazol-2-yl-phenyl)-{(S)-2-[5-(2-ethoxy-pyridin-3-yl)-4H-[1,2,4]triazol-3-yl]-pyrrolidin-1-yl}-methanone] | 8 | 9 | – | –
33 | CCOc1ncccc1-c1nnc([C@@H]2CCCN2C(=O)c2ccc(Cl)cc2-n2nccn2)[nH]1 [compound 481] | 26 | 21 | – | –
34 | CCOc1ncccc1-c1nnc([C@@H]2CCCN2C(=O)c2ccc(C)cc2-n2nccn2)[nH]1 [compound 482, {(S)-2-[5-(2-Ethoxy-pyridin-3-yl)-4H-[1,2,4]triazol-3-yl]-pyrrolidin-1-yl}-(4-methyl-2-[1,2,3]triazol-2-yl-phenyl)-methanone] | 68 | 94 | – | –
35 | O=C(c1ncsc1-c1ccccc1)N1CCC[C@H]1c1nnc(-c2ccccc2OC(F)(F)F)[nH]1 [compound 483, (5-Phenyl-thiazol-4-yl)-{(S)-2-[5-(2-trifluoromethoxy-phenyl)-4H-[1,2,4]triazol-3-yl]-pyrrolidin-1-yl}-methanone] | 1620 | 1790 | – | –
